SMILES strings stand for the structures.

The melting point is the temperature, or range, at which the solid turns liquid. With `Cc1nnc2ccc(Cl)nn12`, the melting point lay in the range of 103 to 105 °C.
The compound `CC(Oc1ccc(Br)cc1F)C(=O)O` (centres undefined) yielded a melting point of 113 to 115 °C.
With `Cn1c(S)nnc1-c1ccc(F)cc1` the figure was 111 to 115 °C.
`O=C(O)c1cc(-c2cccs2)n(-c2ccccc2)n1`: the melting point lay in the range of 193 to 195 °C.
Take `CC(C)Oc1ccc(C#N)cc1`: the melting point fell in the range of 50 to 52 °C.
With `O=C(O)CCc1nncn1-c1ccccc1` the figure was 202 to 204 °C.
With `OCc1cnn(Cc2ccccc2)c1` the figure was 55 to 57 °C.
With `N#CCC(=O)c1ccc(Cl)cc1Cl`, the melting point is 62 to 64 °C.
With `CCn1c2ccccc2c2cc(/C=C/C(=O)O)ccc21` the figure was 243 to 245 °C.
Take `NNC(=O)C1COCCO1` (centres undefined): the melting point lay in the range of 106 to 108 °C.
Then `COC(=O)c1cccc(N2CC(=O)NC2=O)c1`, with 189 to 191 °C.
With `CC1CCc2c(sc3nc(C(C)Cl)[nH]c(=O)c23)C1` (centres undefined) the figure was 248 to 250 °C; with `O=C(CNC1CC1)NC1CC1`, 47 to 49 °C.
Then `Cc1nn(-c2ccc(Br)cc2)cc1C=O`, with 111 to 113 °C; and `CCn1c(C)cc(C(=O)O)c1C`, with under 17 °C; and `CC(=O)CC(=O)c1ccc(Br)cc1`, with 92 to 94 °C.
As for `CCN(CC)C(=O)COc1ccc(C(C)=O)cc1`, the melting point lay in the range of 61 to 63 °C.
With `COc1ccc(C(C)=O)cc1Cn1cccn1` the figure was 80 to 82 °C.
With `NCC(O)c1ccc(F)cc1` (centres undefined) the figure was 65 to 67 °C.
With `COc1ccccc1CN1C(=O)C=CC1=O` the figure was 93 to 95 °C.
In the case of `O=C(O)c1cccc(NC(=O)c2ccco2)c1`, the melting point is 224 to 226 °C.
With `Nc1ccc(-c2noc(=O)[nH]2)cc1` the figure was 198 to 200 °C; with `CCc1nnsc1C(=O)NC1CCCCC1`, 80 to 82 °C.
With `CCN(CC)S(=O)(=O)c1ccc(N2CCOCC2)c(C(=O)O)c1` the figure was 149 to 151 °C; with `Fc1cc(Br)cc2c(Cl)cc(C(F)(F)F)nc12`, 91 to 93 °C.
Then `NNc1ccnc(F)c1`, with 98 to 100 °C; and `CN(c1ccccc1)S(=O)(=O)c1cccc(C(=O)O)c1`, with 148 to 152 °C.
The compound `COc1cccc(NCCC#N)c1` registered a melting point of 81 to 83 °C.
In turn, `Cc1nc2c(cnn2C)c(=O)[nH]1` came in with a melting point of 274 to 276 °C.
Then `CNS(=O)(=O)c1ccc(N)cc1OC`, with 187 to 189 °C; and `O=C(O)CNC(=O)c1ccc(C(=O)NCC(=O)O)cc1`, with 261 to 263 °C.
With `CC(C)(C)OC(=O)Nc1cnc(C(=O)O)cn1` the figure was 261 to 263 °C; with `COC(=O)C1(N)CCS(=O)(=O)CC1`, 124 to 126 °C.
With `O=C(O)Cc1csc(NC(=O)Cc2cccs2)n1` the figure was 200 to 202 °C; with `CCc1noc(-c2ccc(C)c(N)c2)n1`, 77 to 79 °C.
On to `C=CCc1cc([N+](=O)[O-])ccc1O`, for which the melting point fell in the range of 68 to 70 °C.
With `O=S(=O)(Cl)Cc1cc(Cl)ccc1F` the figure was 45 to 47 °C; with `FC(F)(F)Cn1c(S)nnc1N1CCOCC1`, 175 to 177 °C.
Then `O=C(CCl)NC(=O)NCc1cccs1`, with 148 to 150 °C.
Then `COc1cc(-n2cccc2)c(Cl)cc1C(=O)O`, with 152 to 154 °C; and `Brc1ccccc1Oc1cccnn1`, with 109 to 111 °C; and `CCOC(=O)c1c(C)nn2c(=O)cc(CCl)[nH]c12`, with 218 to 220 °C.
As for `CCCc1ccc(N2CC(C(=O)O)CC2=O)cc1` (centres undefined), the melting point was in the range of 136 to 138 °C.
With `BrCc1cn(-c2ccccc2)nn1` the figure was 111 to 113 °C; with `O=C1CC2(CCCCC2)C(=O)O1`, 54 to 58 °C; with `CSCc1nc(N)ccc1Cl`, 70 to 72 °C.
Then `CN(C)c1nc(Cl)c(C=O)s1`, with 109 to 111 °C; and `Cc1nc(Cl)c2c3c(sc2n1)CCC3`, with 91 to 93 °C; and `CC(C)(C)OC(=O)NCC1CCCCC1N` (centres undefined), with 61 to 63 °C.
`COc1ccc(N)cc1CO` came in with a melting point of 115 to 117 °C.
Then `Cc1cc(C)c(C(=O)O)cc1N`, with 203 to 205 °C; and `Nc1nc(Cc2ccccc2)cs1`, with 89 to 91 °C; and `O=C(CBr)c1cc2cc(Cl)ccc2o1`, with 168 to 170 °C.
Take `O=c1[nH]nc(-c2ccco2)o1`: the melting point lay within 111 to 113 °C.
`CC(C)(C)CC(=O)Nc1ccc(CC(=O)O)cc1` gave a melting point of 179 to 181 °C.
With `N#Cc1cc(C=O)ccc1F` the figure was 80 to 84 °C; with `O=C1Nc2cc(F)c(Cl)cc2C1=O`, 256 to 258 °C; with `CCCc1nc(N)sc1CC`, 53 to 55 °C.
As to `CCC1(C)CCNC(=O)CC1` (centres undefined), the melting point is 76 to 78 °C.
Then `Nn1c(S)nnc1-c1ccccc1Cl`, with 110 to 113 °C.
Then `C=CC(=O)Nc1ccc(C(=O)O)cc1`, with 246 to 248 °C; and `O=C(O)c1ccc(F)c(S(=O)(=O)NC2CC2)c1`, with 226 to 228 °C.
With `Clc1cc2c(Cl)ncnc2[nH]1` the figure was 239 to 241 °C; with `CC(O)c1ccc(CN)cc1` (centres undefined), 87 to 89 °C.
Compound `COC(=O)c1cc(CCl)c(C)s1` came in with a melting point of 54 to 56 °C.
With `Cc1c[nH]c(=O)n1-c1ccccc1F` the figure was 211 to 213 °C; with `CC(C)c1cc(C(=O)O)on1`, 74 to 76 °C; with `CSc1cc(N)ccn1`, 79 to 81 °C.
With `N#Cc1cc(CBr)ccc1F` the figure was 44 to 46 °C; with `COC(=O)c1scnc1C1CC1`, 59 to 61 °C; with `Cc1ccc(S(=O)(=O)NC(CCC(N)=O)C(=O)O)cc1C` (centres undefined), 171 to 173 °C.
With `Cc1ccc(CC(=O)NO)cc1` the figure was 155 to 157 °C.
In turn, `Clc1ccc(NCc2cccnc2)cc1` came in with a melting point of 98 to 100 °C.
With `Oc1ccccc1-n1ccnc1` the figure was 218 to 220 °C; with `O=C(O)c1ccc(S(=O)(=O)NC2CC2)cc1`, 243 to 245 °C.
With `Cn1c(C(=O)O)cc2c(=O)n3ccccc3nc21` the figure was 288 to 290 °C; with `COc1csc(C(=O)O)c1`, 167 to 169 °C.
Compound `CNC(=O)c1ccc([N+](=O)[O-])cc1Cl` yielded a melting point of 166 to 168 °C.
With `Nc1cc(C2CC2)nc2ccc(Cl)cc12` the figure was 96 to 98 °C; with `O=c1[nH]c(CO)nc2ccccc12`, 221 to 223 °C; with `NC(=O)C(Cl)c1ccc(F)cc1` (centres undefined), 93 to 95 °C.
On to `Cc1cc(Br)ccc1N1CCCS1(=O)=O`, for which the melting point is 77 to 79 °C.
Regarding `O=C(O)c1ccc(-n2nnc3ccccc32)cc1`, the melting point was in the range of 308 to 310 °C.
Then `COc1cc2c(c(OC)c1OC)CCNC(=O)C2`, with 176 to 178 °C.
In the case of `CC(C)[C@H](C(=O)O)N(C)C`, the melting point is 154 to 156 °C.
With `NC(=S)c1cccc(C(=O)O)c1` the figure was 240 to 242 °C; with `O=C(CCl)NC(c1ccccc1)c1ccc2[nH]c(C(F)(F)F)nc2c1` (centres undefined), 193 to 195 °C; with `Cc1nn(C)c(C(F)F)c1C(=O)O`, 165 to 167 °C.
With `N#Cc1ccc(NC(=O)CCCCl)cc1` the figure was 114 to 116 °C.

Source of the values: a melting point compilation (Tetko et al.).
